Reference: patent publication US9244060B2, “Site localization and methods for monitoring treatment of disturbed blood vessels” (Warsaw Orthopedic, Inc., priority 2009, dated 2016)

Details: rat, in vivo
Experimental: Female Sprague-Dawley rats (Harlan Sprague-Dawley, Indianapolis, Ind.), weighing 250-300 grams each were given free access to food and water before the experiment. The animals were anesthetized with ketamine (80 mg/kg) and xylazine (10 mg/kg). Brain temperatures were monitored using a rectal thermometer. The animals' body temperature was maintained at 37° C. by using a water-jacketed heating pad. Brain temperature was monitored for 1 hour prior to injury to 6 hours following injury and was recorded at 30-minute intervals.
Young adult female Sprague-Dawley rats received a spinal cord contusion using the Precision Systems and Instrumentation, LLC (Fairfax Station, Va.) pneumatic impactor. Prior to surgery, rats were assigned to different treatment groups based on a randomized block design so that on any given surgery day all treatment groups were included. The rats were anesthetized with ketamine (80 mg/.kg) and xylazine (10 mg/kg) before laminectomy was performed at the 10th thoracic vertebra (T10). The vertebral column was stabilized with angled clamps on the upper thoracic (T8) and lumber (T11) levels and the impactor with a tip diameter of 2 mm was delivered at approximately 150 kdynes onto the exposed, intact dura overlying the dorsal spinal cord. The impactor was immediately removed, the wound irrigated with saline and the muscle and skin openings sutured together.
Two hours following injury, 0.8% magnesium in 3350 formulations was administered by intravenous infusion of 5 mL/kg over a 30-min period. For repeated infusions, an interval of 6 hours was used between infusions and the right jugular vein was cannulated with PE 50 tubing. The cannula was secured through the back of the neck and capped between infusion periods. Animals were re-anesthetized for re-administration of compounds. The contents of the infusion vials were blinded to the investigators performing both the infusions and the analyses.
At various time points after infusion, cerebrospinal fluid and/or blood samples and/or spinal cord tissue with and without the injury site were collected. […]
Serum and CSF samples were analyzed for magnesium concentrations by the Clinical Pathology Department at WIL Research Laboratories, LLC, 1407 George Road, Ashland, Ohio 44805. […] The formation of the chromophore (and consequently a reduction of the xylidyl blue) is proportional to the concentration of Mg^2+, measured by the instrument as a decrease in the xylidyl blue absorbance (600 nm). […]
Tissue and plasma concentrations of PEG-3350 in rat plasma were measured using a validated high performance liquid chromatograpy tandem mass spectrometry (HPLC/MS/MS) method in positive electrospray ionization mode. […] The samples were analyzed with an HPLC/MS/MS assay using a Thermo Hypersil ODS column. […]

Compound	time for Magnesium serum level to decrease to baseline level post-infusion [min]	time at which Cmax of Magnesium serum level was observed (iv)	time for PEG plasma level to decrease to baseline level post-infusion [min]	time at which Cmax of PEG plasma level was observed (iv)
[Mg+2] [Magnesium, magnesium]	30 to 60	at the end of the infusion	–	–
polyethylene glycol [PEG]	–	–	30 to 60	at the end of the infusion
